Measured values reported in the NIST ThermoML archive (doi:10.1021/je9005757).

Assay: cn = amount concentration of the nth substance listed, in mol/dm3
Details: 101 kPa, Liquid; for molar conductivity: Shedlovsky-type conductance cell; for binary diffusion coefficient: Open capillary

CN[C@@H](C)[C@H](O)c1ccccc1.Cl [ephedrine hydrochloride] + O
Details | binary diffusion coefficient, 310.15 K [m2/s] | molar conductivity, 303.15 K [S·m2/mol] | molar conductivity, 310.15 K [S·m2/mol] | molar conductivity, 323.15 K [S·m2/mol]
c1 = 0.00125 | 1.57e-09 | – | – | –
c1 = 0.00184 | – | 0.01041 | 0.01195 | 0.01495
c1 = 0.002438 | – | 0.01023 | 0.01173 | 0.01471
c1 = 0.0025 | 1.56e-09 | – | – | –
c1 = 0.00303 | – | 0.01006 | 0.01154 | 0.01449
c1 = 0.003614 | – | 0.009914 | 0.01139 | 0.01427
c1 = 0.004191 | – | 0.009802 | 0.01125 | 0.01408
c1 = 0.004761 | – | 0.009663 | 0.01108 | 0.01392
c1 = 0.00499 | 1.5e-09 | – | – | –
c1 = 0.005324 | – | 0.009567 | 0.01096 | 0.01377
c1 = 0.005881 | – | 0.009474 | 0.01085 | 0.01356
c1 = 0.006431 | – | 0.009363 | 0.01074 | 0.01344
c1 = 0.006975 | – | 0.009271 | 0.01064 | 0.01332
c1 = 0.00746 | 1.45e-09 | – | – | –
c1 = 0.007513 | – | 0.009197 | 0.01052 | 0.01318
c1 = 0.008044 | – | 0.00911 | 0.01042 | 0.01307
c1 = 0.008569 | – | 0.009028 | 0.01033 | 0.01295
c1 = 0.009089 | – | 0.008949 | 0.01023 | 0.01284
c1 = 0.009602 | – | 0.008878 | 0.01015 | 0.01274
c1 = 0.01 | 1.41e-09 | – | – | –
c1 = 0.01011 | – | 0.008807 | 0.01007 | 0.01264
c1 = 0.01061 | – | 0.008734 | 0.009982 | 0.01254
c1 = 0.01111 | – | 0.008665 | 0.009901 | 0.01244
c1 = 0.0116 | – | 0.008596 | 0.009821 | 0.01234
c1 = 0.01209 | – | 0.008528 | 0.009742 | 0.01226
c1 = 0.01256 | – | 0.008464 | 0.009673 | 0.01215
c1 = 0.01304 | – | 0.008437 | 0.009602 | 0.01206
c1 = 0.01351 | – | 0.008343 | 0.009533 | 0.01197
c1 = 0.01397 | – | 0.008286 | 0.009467 | 0.01189
c1 = 0.01443 | – | 0.00823 | 0.009401 | 0.01181
c1 = 0.01489 | – | 0.008174 | 0.009336 | 0.01172
c1 = 0.01534 | – | 0.008118 | 0.009271 | 0.01164
c1 = 0.01579 | – | 0.008064 | 0.009208 | 0.01156
c1 = 0.01623 | – | 0.008012 | 0.009146 | 0.01149
c1 = 0.01666 | – | 0.007962 | 0.009088 | 0.01141
